Experimental findings from US4971975A (priority 1987, dated 1990) are described below.

The target in experiment [1] is muscarinic receptors. The class given is binding, Hooded Lister rats. Conditions: displacement of antagonist 3H-QNB (0.27 nM), rat cerebral cortex membranes, 37° C., 30 min.
The target in experiment [2] is muscarinic receptors. As to the kind of experiment: Radio ligand binding: displacement of the muscarinic agonist 3H-OXO-M from rat cerebral cortex membranes. On the set-up: species or system Hooded Lister rats. As to conditions: displacement of agonist 3H-OXO-M (2 nM), 2 mM magnesium chloride, 37° C., 30 min.

Structures are written as SMILES. Counter-ions that a name gives are not always drawn. Like-named read-outs stand apart in the source and are kept apart here.

Regarding `Cc1nnc(C23CCCN(CC2)C3)o1` (centres unmarked) [Compound E13, 5-(2-Methyl-1,3,4-oxadiazol-5-yl)-1-azabicyclo3.2.1]octane oxalate salt], the values for the IC50 in experiment [1] and in experiment [2] were 9.4 µM and 0.039 µM, respectively.
As for `c1cc(C23CCCN(CC2)C3)on1` (centres unmarked) [Compound E15, 5-(1,2-Oxazol-5-yl)-1-azabicyclo[3.2.1]octane oxalate salt], the IC50 (usually the point on the concentration scale where inhibition reaches its midpoint) stood at 7.8 µM in experiment [1] and 0.13 µM in experiment [2].
Consider `c1coc(C23CCCN(CC2)C3)n1` (centres unmarked) [Compound E12, 5-(1,3-Oxazol-2-yl)-1-azabicyclo[3.2.1]octane oxalate salt], for which the half-inhibitory concentration (IC50) in experiment [1] is 15 µM; in experiment [2], 0.145 µM.
For the molecule `Cc1noc(C23CCCN(CC2)C3)n1` (centres unmarked) [Compound E10, 5-(3-Methyl-1,2,4-oxadiazol-5-yl)-1-azabicyclo[3.2.1]octane oxalate salt], the figures for the IC50 in experiment [1] and in experiment [2] were 4 µM and 0.017 µM, respectively.
In the same order, the values of `c1coc(C23CCCN(CC2)C3)c1` (centres unmarked) [Compound E21, 5-(Fur-2-yl)-1-azabicyclo[3.2.1]octane hydrochloride salt] are 3.8 µM and 0.034 µM.
For `Cc1noc(C23CCN(CC2)C3)n1` [Compound E11, 4-(3-Methyl-1,2,4-oxadiazol-5-yl)-1-azabicyclo[2.2.1]-heptane oxalate salt] the same measures were 14 µM and 0.093 µM.
For `COC(=O)C12CCN(CC1)C2` [Compound E6, Methyl 1-azabicyclo[2.2.1]hept-4-ylcarboxylate oxalate salt] the same measures were 29 µM and 0.042 µM.
For the molecule `c1nnc(C23CCCN(CC2)C3)o1` (centres unmarked) [Compound E14, 5-(1,3,4-Oxadiazol-2-yl)-1-azabicyclo[3.2.1]octane oxalate salt], the results for the IC50 in experiment [1] and in experiment [2] were 9 µM and 0.16 µM, respectively.
Consider `Cc1nnc(C23CCN(CC2)C3)o1` [Compound E17, 4-(2-Methyl-1,3,4-oxadiazol-5-yl)-1-azabicyclo[2.2.1]heptane oxalate salt], for which the figures for the IC50 in experiment [1] and in experiment [2] were 48 µM and 0.23 µM, respectively.
In the case of `COC(=O)C12CCCN(CC1)C2` (centres unmarked) [Compound E3, Methyl 1-azabicyclo[3.2.1]oct-5-ylcarboxylate oxalate salt], the IC50 came to 6.7 µM in experiment [1] and 0.014 µM in experiment [2].
